Columns and labels:
Assay type in all cases: in vivo, male Wistar rats
optic nerve and retina = assay: Cellular morphology of optic nerve and retina sections after intraocular injection; details: 24 hours
Procedure: (§1) A group of 55 male Wistar rats, average weight 300-350 g, were housed in controlled light and temperature with unlimited access to food and water. 20 animals were submitted to intraocular injection of 0.5 mM, 2 mM, 3.5 mM, 5 mM mildronate, 15 µl in physiological solution, to standardize experimental conditions (data not shown). A group of 5 animals were submitted to intraocular injection of 2% methylcellulose (MTC), 15 µl in physiological solution. MTC is a molecule capable of mechanically blocking the outflow of aqueous humor leading to ocular hypertension.
(§2) Thirty animals were randomly separated into 3 experimental groups: rats from first group received mildronate 5 mM; rats from second group received mildronate 2 mM; rats from third group received mildronate 2 mM + L-carnitine 0.6 mM, 15 µl in physiological solution; all controlateral eyes were used as control.
(§3) After local anesthesia with 0.4% oxybuprocaine eye drops (Novesina™, Novartis, Basel, Switzerland) and after induction with ether, animal were injected in the posterior chamber of the right eye with solutions described above.
24 hours after the intraocular injection, rats were given general anesthesia by intra-peritoneal injection of 500 pl sodium-thiopental solution (Farmotal™, Pharmacia & Upjohn, USA) in saline. They were then sacrificed by carotid bleeding and eyeballs were removed. […]

[1] = test system: RGCs and astrocytes cells of the optic nerve; assay: TUNEL assay (DNA damage) on eye sections after intraocular injection; details: 24 hours
Procedure: A group of 55 male Wistar rats, average weight 300-350 g, were housed in controlled light and temperature with unlimited access to food and water. 20 animals were submitted to intraocular injection of 0.5 mM, 2 mM, 3.5 mM, 5 mM mildronate, 15 µl in physiological solution, to standardize experimental conditions (data not shown). A group of 5 animals were submitted to intraocular injection of 2% methylcellulose (MTC), 15 µl in physiological solution. MTC is a molecule capable of mechanically blocking the outflow of aqueous humor leading to ocular hypertension. […]
The sections (thickness of 10 µm), left to dry at room temperature for 30 min, were subjected to the following treatments: rehydration through a descending alcohol series (100°, 95°, 75°; 2 min each); incubation with protease 20 µg/mL in Triton X-100 to 0.1% at 37°C for 30 min; washes with 1X PBS for 2 min; incubation with TUNEL reagent (In Situ Cell Death Detection Kit, AP/ROCHE), containing 1/10 in volume of terminal deoxynucleotidyl transferase and the remaining fraction of nucleotides labeled with a fluorescent chromophore, 10 µl per section at 37°C for 1h. […] The observations were made under a fluorescence microscope and pictures were taken by computerized image acquisition.

iNOS = iNOS expression by immunohistochemistry (confirmed by western blot of retina extracts)
Procedure: as §1, §2, §3
(§4) 24 hours after the intraocular injection, rats were given general anesthesia by intra-peritoneal injection of 500 pl sodium-thiopental solution (Farmotal™, Pharmacia & Upjohn, USA) in saline. They were then sacrificed by carotid bleeding and eyeballs were removed.
iNOS expression was detected with a rabbit polyclonal anti-iNOS antibody (Santa Cruz) (1:50), followed by a green fluorescent goat anti-rabbit IgG Alexa Fluor® (Molecular Probes) secondary antibody. […]
(§5) The observations were made under a fluorescence microscope and pictures taken by computerized image acquisition. […]

Caspase-3 = Caspase-3 expression by immunohistochemistry (confirmed by western blot of retina extracts)
Procedure: as §1, §2, §3, §4
Caspase-3 expression was detected with a rabbit polyclonal anti-caspase-3 antibody (Santa Cruz) (1:100), followed by a green fluorescent goat anti-rabbit IgG Alexa Fluor® (Molecular Probes) secondary antibody. […]
as §5

Question: `C[N+](C)(C)NCCC(=O)[O-]` [mildronate, 3-(2,2,2-trimethylhydrazinium)propionate] was tested. Which “Cellular morphology of optic nerve” value (optic nerve and retina; mildronate 5 mM, 15 µl intraocular injection, vs control eye) did it give?
Answer: Its value is “fibers do not run longitudinally, the papilla shows an excavation”.

Question: And the “Cellular morphology of retina” value (optic nerve and retina; mildronate treated animals, intraocular injection)?
Answer: The value was “picnotic and/or vacuolated nuclei and fragmented chromatin”.

Question: And the “DNA damage (TUNEL fluorescence due to DNA fragmentation)” value ([1]; mildronate 2 mM)?
Answer: Its value is “slight positive fluorescence”.

Question: And the “DNA damage (TUNEL fluorescence due to DNA fragmentation)” value ([1]; mildronate 5 mM, RGCs and astrocytes of the optic nerve)?
Answer: The value was “strong fluorescence”.

Question: What about the iNOS expression (iNOS; 2 mM mildronate, optic nerve and retina, with respect to 5 mM mildronate-treated specimens) of the same compound?
Answer: The iNOS expression was “mild decrease of iNOS expression”.

Question: What about the iNOS expression (iNOS; 5 mM mildronate, 24 hours, glial retinal cells and astrocytes of optic nerve, compared to control) of the same compound?
Answer: The iNOS expression was “high levels of iNOS”.

Question: What about the “NO levels and iNOS immunolocalization” value (iNOS; summary statement, dose not stated) of the same compound?
Answer: Its value is “increased NO levels and iNOS immunolocalization”.

Question: And the Caspase-3 expression (Caspase-3; 2 mM mildronate, optic nerve and retina)?
Answer: The Caspase-3 expression was “mild decrease of positivity”.

Question: And the Caspase-3 expression (Caspase-3; 5 mM mildronate, astrocytes and retinal cells)?
Answer: Its Caspase-3 expression is “high caspase-3 levels”.

Question: And the “Apoptosis of retinal ganglion cells and optic nerve astrocytes” value (Caspase-3; summary statement, 24 hours after treatment)?
Answer: Its value is “showed apoptosis”.

— EP2842557A1, “Mildronate in ophthalmic disorders” (SIGMA-TAU Industrie Farmaceutiche Riunite S.p.A., priority 2013, dated 2015)
